Patent publication US9833497B2, “Human originated EGF domain proteins and use of the same” (CHENGDU SOURCEBIO LIMITED-LIABILITY COMPANY, priority 2013, dated 2017)

Tests used:
Format in all cases: cell-based
Enterobacter cloacae = test: MIC against Gram-negative bacteria: Enterobacter cloacae; settings: 5×10^5 CFU/mL
In short: (§1)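 Bacteria grown in LB at 37° C with shaking to McFarland 0.5, pelleted and resuspended in fresh LB, then seeded at 5×10^5 CFU/mL per well. Purified recombinant human EGF domain proteins were two-fold serially diluted in triplicate and plates shaken at 37° C, 175 rpm. MIC is the lowest protein concentration with no bacterial growth.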

Pseudomonas aeruginosa = test: MIC against Gram-negative bacteria: Pseudomonas aeruginosa; settings: 5×10^5 CFU/mL
In short: as §1

Moraxella catarrhalis = test: MIC against Gram-negative bacteria: Moraxella catarrhalis; settings: 5×10^5 CFU/mL
In short: as §1

Serratia marcescens = test: MIC against Gram-negative bacteria: Serratia marcescens; settings: 5×10^5 CFU/mL
In short: as §1

Proteus mirabilis = test: MIC against Gram-negative bacteria: Proteus mirabilis; settings: 5×10^5 CFU/mL
In short: as §1

Klebsiella pneumonia = test: MIC against Gram-negative bacteria: Klebsiella pneumonia; settings: 5×10^5 CFU/mL
In short: as §1

E. coli DH5α = test: Antibacterial activity: MIC and growth curve against E. coli DH5α in 96-well plate; settings: minimal inhibitory concentration against E. coli DH5α; 96-well plate, 5×10^5 CFU/mL, 37° C., judged after 8 h
In short: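 Log-phase DH5α (OD600 about 0.5, 37° C, 185 rpm in LB) was pelleted, resuspended in fresh LB and seeded at 5×10^5 CFU/mL with recombinant protein at 50, 25 and 12.5 μg/mL (two-fold series), in triplicate. Plates were shaken at 175 rpm, 37° C, and OD600 was read every 30 min. MIC was the lowest concentration with no growth.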

Aeromonas hydrophila = test: MIC against Gram-negative bacteria: Aeromonas hydrophila; settings: 5×10^5 CFU/mL
In short: as §1

Proteus vulgaris = test: MIC against Gram-negative bacteria: Proteus vulgaris; settings: 5×10^5 CFU/mL
In short: as §1

E. coli BL21 = test: MIC against Gram-negative bacteria: E. coli BL21; settings: 5×10^5 CFU/mL
In short: as §1

Citrobacter diversus = test: MIC against Gram-negative bacteria: Citrobacter diversus; settings: 5×10^5 CFU/mL
In short: as §1

[1] = E. coli BL21, 10 h cultivation at 37° C.
[2] = 10 h cultivation at 37° C., two-fold serial dilution

PRT828 (HGAGCQGLCWCQHGAPCDPISGRCLCPAGFHGHFCE; listed as Homo sapiens)
25 µg/mL: MIC (μg/mL) S. marcescens (Serratia marcescens; 10 h cultivation at 37° C.) | MIC (μg/mL) P. mirabilis (Proteus mirabilis; 10 h cultivation at 37° C.)
50 µg/mL: MIC (μg/mL) M. catarrhalis (Moraxella catarrhalis; 10 h cultivation at 37° C.) | MIC (μg/mL) K. pneumonia (Klebsiella pneumonia; 10 h cultivation at 37° C.) | MIC (μg/mL) A. hydrophila (Aeromonas hydrophila; 10 h cultivation at 37° C.) | MIC (μg/mL) E. coli BL21 (E. coli BL21; [1])
12.5 µg/mL: MIC (μg/mL) E. cloacae (Enterobacter cloacae; 10 h cultivation at 37° C.) | MIC (μg/mL) P. aeruginosa (Pseudomonas aeruginosa; 10 h cultivation at 37° C.) | MIC (E. coli DH5α) | MIC (μg/mL) P. vulgaris (Proteus vulgaris; 10 h cultivation at 37° C.) | MIC (μg/mL) C. diversus (Citrobacter diversus; 10 h cultivation at 37° C.)

PRT1093 (RKDWCESQPCQSRGRCINLWLSYQCDCHRPYEGPNCL; listed as Homo sapiens)
12.5 µg/mL: MIC E. cloacae (Enterobacter cloacae; [2]) | MIC P. aeruginosa (Pseudomonas aeruginosa; [2]) | MIC M. catarrhalis (Moraxella catarrhalis; [2]) | MIC S. marcescens (Serratia marcescens; [2]) | MIC (E. coli DH5α)
50 µg/mL: MIC K. pneumonia (Klebsiella pneumonia; [2]) | MIC A. hydrophila (Aeromonas hydrophila; [2]) | MIC P. vulgaris (Proteus vulgaris; [2]) | MIC E. coli BL21 (E. coli BL21; [2])
25 µg/mL: MIC P. mirabilis (Proteus mirabilis; [2]) | MIC C. diversus (Citrobacter diversus; [2])

PRT536 (CECHPTGATGPHCSPEGGQCPCQPNVIGRQCTRCATGHYGFPRCKP; listed as Homo sapiens)
50 µg/mL: MIC against M. catarrhalis (Moraxella catarrhalis; 96-well plate, 37° C., 10 h) | MIC against K. pneumonia (Klebsiella pneumonia; 96-well plate, 37° C., 10 h) | MIC against A. hydrophila (Aeromonas hydrophila; 96-well plate, 37° C., 10 h) | MIC against P. vulgaris (Proteus vulgaris; 96-well plate, 37° C., 10 h) | MIC against E. coli BL21 (E. coli BL21; 96-well plate, 37° C., 10 h)
12.5 µg/mL: MIC against E. cloacae (Enterobacter cloacae; 96-well plate, 37° C., 10 h) | MIC against P. aeruginosa (Pseudomonas aeruginosa; 96-well plate, 37° C., 10 h) | MIC against S. marcescens (Serratia marcescens; 96-well plate, 37° C., 10 h) | MIC against P. mirabilis (Proteus mirabilis; 96-well plate, 37° C., 10 h) | MIC (E. coli DH5α) | MIC against C. diversus (Citrobacter diversus; 96-well plate, 37° C., 10 h)

PRT1288 (ADGPCHGHKCVHGQCVPLDALSYSCQCQDGYSGALCN; listed as Homo sapiens)
12.5 µg/mL: MIC against P. aeruginosa (Pseudomonas aeruginosa; Pseudomonas aeruginosa, 96-well plate, 37° C., 10 h) | MIC against S. marcescens (Serratia marcescens; Serratia marcescens, 96-well plate, 37° C., 10 h) | MIC against P. mirabilis (Proteus mirabilis; Proteus mirabilis, 96-well plate, 37° C., 10 h) | MIC against A. hydrophila (Aeromonas hydrophila; Aeromonas hydrophila, 96-well plate, 37° C., 10 h) | MIC against C. diversus (Citrobacter diversus; Citrobacter diversus, 96-well plate, 37° C., 10 h)
25 µg/mL: MIC against K. pneumonia (Klebsiella pneumonia; Klebsiella pneumonia, 96-well plate, 37° C., 10 h) | MIC against P. vulgaris (Proteus vulgaris; Proteus vulgaris, 96-well plate, 37° C., 10 h) | MIC against E. coli BL21 (E. coli BL21; E. coli BL21, 96-well plate, 37° C., 10 h)
50 µg/mL: MIC against E. cloacae (Enterobacter cloacae; Enterobacter cloacae, 96-well plate, 37° C., 10 h) | MIC against M. catarrhalis (Moraxella catarrhalis; Moraxella catarrhalis, 96-well plate, 37° C., 10 h) | MIC (E. coli DH5α)

PRT671 (RVVVCPLPCMNGGQCSSRNQCLCPPDFTGRFCQ; listed as Homo sapiens)
50 µg/mL: MIC (E. coli DH5α)
12.5 µg/mL: MIC E. cloacae (Enterobacter cloacae; 96-well plate, 37° C., 10 h) | MIC P. aeruginosa (Pseudomonas aeruginosa; 96-well plate, 37° C., 10 h) | MIC S. marcescens (Serratia marcescens; 96-well plate, 37° C., 10 h) | MIC P. mirabilis (Proteus mirabilis; 96-well plate, 37° C., 10 h) | MIC K. pneumonia (Klebsiella pneumonia; 96-well plate, 37° C., 10 h) | MIC E. coli BL21 (E. coli BL21; 96-well plate, 37° C., 10 h) | MIC C. diversus (Citrobacter diversus; 96-well plate, 37° C., 10 h)
25 µg/mL: MIC M. catarrhalis (Moraxella catarrhalis; 96-well plate, 37° C., 10 h) | MIC A. hydrophila (Aeromonas hydrophila; 96-well plate, 37° C., 10 h) | MIC P. vulgaris (Proteus vulgaris; 96-well plate, 37° C., 10 h)

PRT764 (AQDKCALGTHGCQHICVNDRTGSHHCECYEGYTLNADKKTCS; listed as Homo sapiens)
25 µg/mL: MIC (μg/mL) P. mirabilis (Proteus mirabilis; 10 h cultivation at 37° C.) | MIC (μg/mL) P. vulgaris (Proteus vulgaris; 10 h cultivation at 37° C.) | MIC (μg/mL) E. coli BL21 (E. coli BL21; [1])
12.5 µg/mL: MIC (μg/mL) M. catarrhalis (Moraxella catarrhalis; 10 h cultivation at 37° C.) | MIC (E. coli DH5α) | MIC (μg/mL) A. hydrophila (Aeromonas hydrophila; 10 h cultivation at 37° C.)
50 µg/mL: MIC (μg/mL) E. cloacae (Enterobacter cloacae; 10 h cultivation at 37° C.) | MIC (μg/mL) P. aeruginosa (Pseudomonas aeruginosa; 10 h cultivation at 37° C.) | MIC (μg/mL) S. marcescens (Serratia marcescens; 10 h cultivation at 37° C.) | MIC (μg/mL) C. diversus (Citrobacter diversus; 10 h cultivation at 37° C.)
100 µg/mL: MIC (μg/mL) K. pneumonia (Klebsiella pneumonia; 10 h cultivation at 37° C.)
